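Results reflect a 48-hour exposure of cells in 96-well plates to compound at five concentrations. GI50: concentration for 50% inhibition of growth. Definition used: TGI = concentration required for complete inhibition of growth.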
Tests used:
Assay in all cases: NCI anticancer screen, dose series, 48 h
[1] = tested on: 786-0 renal
[2] = tested on: A498 renal
[3] = tested on: A549 NSCLC
[4] = tested on: ACHN renal
[5] = tested on: BT-549 breast
[6] = tested on: CAKI-1 renal
[7] = tested on: CCRF-CEM leukemia
[8] = tested on: COLO 205 colon
[9] = tested on: DU-145 prostate
[10] = tested on: HCC-2998 colon
[11] = tested on: HCT-116 colon
[12] = tested on: HCT-15 colon
[13] = tested on: HL-60(TB) leukemia
[14] = tested on: HOP-62 NSCLC
[15] = tested on: HOP-92 NSCLC
[16] = tested on: HS 578T breast
[17] = tested on: IGROV1 ovarian
[18] = tested on: K-562 leukemia
[19] = tested on: KM12 colon
[20] = tested on: LOX IMVI melanoma
[21] = tested on: M14 melanoma
[22] = tested on: MALME-3M melanoma
[23] = tested on: MCF7 breast
[24] = tested on: MDA-MB-231 breast
[25] = tested on: MDA-MB-435
[26] = tested on: MOLT-4 leukemia
[27] = tested on: NCI-H226 lung
[28] = tested on: NCI-H23 lung
[29] = tested on: NCI-H460 lung
[30] = tested on: NCI-H522 lung
[31] = tested on: NCI/ADR-RES ovarian
[32] = tested on: OVCAR-3 ovarian
[33] = tested on: OVCAR-5 ovarian
[34] = tested on: OVCAR-8 ovarian
[35] = tested on: PC-3 prostate
[36] = tested on: RPMI-8226 leukemia
[37] = tested on: RXF 393 renal
[38] = tested on: SF-268 CNS
[39] = tested on: SF-295 CNS
[40] = tested on: SF-539 CNS
[41] = tested on: SK-MEL-2 melanoma
[42] = tested on: SK-MEL-28 melanoma
[43] = tested on: SK-MEL-5 melanoma
[44] = tested on: SK-OV-3 ovarian
[45] = tested on: SN12C renal
[46] = tested on: SNB-19 CNS
[47] = tested on: SNB-75 CNS
[48] = tested on: SR leukemia
[49] = tested on: SW-620 colon
[50] = tested on: T-47D breast
[51] = tested on: TK-10 renal
[52] = tested on: UACC-257 melanoma
[53] = tested on: UACC-62 melanoma
[54] = tested on: UO-31 renal
[55] = tested on: EKVX NSCLC
[56] = tested on: HT29 colon
[57] = tested on: OVCAR-4 ovarian
[58] = tested on: U251 CNS

## COc1cc(C2CC(c3cccc(Nc4ccnc5cc(Cl)ccc45)c3)=NN2c2ccc(Cl)cc2)cc(OC)c1OC (stereo not given)
[1]
  GI50: 2050 nM
  TGI: 26200 nM
[2]
  GI50: 4650 nM
  TGI: 91500 nM
[3]
  GI50: 2720 nM
  TGI: > 100000 nM
[4]
  GI50: 1480 nM
  TGI: > 100000 nM
[5]
  GI50: 4630 nM
  TGI: 78600 nM
[6]
  GI50: 693 nM
  TGI: > 100000 nM
[7]
  GI50: 4840 nM
  TGI: > 100000 nM
[8]
  GI50: 3130 nM
  TGI: 24500 nM
[9]
  GI50: 17100 nM
  TGI: > 100000 nM
[10]
  GI50: 3140 nM
  TGI: 22100 nM
[11]
  GI50: 1680 nM
  TGI: > 100000 nM
[12]
  GI50: 1280 nM
  TGI: > 100000 nM
[13]
  GI50: 4180 nM
  TGI: > 100000 nM
[14]
  GI50: 1390 nM
  TGI: 22700 nM
[15]
  GI50: 1850 nM
  TGI: 74800 nM
[16]
  GI50: 2450 nM
  TGI: 86800 nM
[17]
  GI50: 3890 nM
  TGI: > 100000 nM
[18]
  GI50: 755 nM
  TGI: > 100000 nM
[19]
  GI50: 818 nM
  TGI: 93600 nM
[20]
  GI50: 647 nM
  TGI: > 100000 nM
[21]
  GI50: 630 nM
  TGI: 13800 nM
[22]
  GI50: 21900 nM
  TGI: > 100000 nM
[23]
  GI50: 2310 nM
  TGI: > 100000 nM
[24]
  GI50: 2970 nM
  TGI: > 100000 nM
[25]
  GI50: 804 nM
  TGI: 6580 nM
[26]
  GI50: 3680 nM
  TGI: > 100000 nM
[27]
  GI50: 8450 nM
  TGI: > 100000 nM
[28]
  GI50: 17500 nM
  TGI: > 100000 nM
[29]
  GI50: 772 nM
  TGI: > 100000 nM
[30]
  GI50: 1570 nM
  TGI: 22800 nM
[31]
  GI50: 3180 nM
  TGI: > 100000 nM
[32]
  GI50: 3720 nM
  TGI: > 100000 nM
[33]
  GI50: 13200 nM
  TGI: > 100000 nM
[34]
  GI50: 5360 nM
  TGI: > 100000 nM
[35]
  GI50: 819 nM
  TGI: > 100000 nM
[36]
  GI50: 3690 nM
  TGI: > 100000 nM
[37]
  GI50: 2420 nM
  TGI: 34400 nM
[38]
  GI50: 8160 nM
  TGI: > 100000 nM
[39]
  GI50: 1710 nM
  TGI: 33800 nM
[40]
  GI50: 1710 nM
  TGI: 4870 nM
[41]
  GI50: 4650 nM
  TGI: 35300 nM
[42]
  GI50: 4540 nM
  TGI: > 100000 nM
[43]
  GI50: 1370 nM
  TGI: 4050 nM
[44]
  GI50: 17300 nM
  TGI: > 100000 nM
[45]
  GI50: 7240 nM
  TGI: > 100000 nM
[46]
  GI50: 30300 nM
  TGI: > 100000 nM
[47]
  GI50: 2220 nM
  TGI: > 100000 nM
[48]
  GI50: 2540 nM
  TGI: > 100000 nM
[49]
  GI50: 666 nM
  TGI: > 100000 nM
[50]
  GI50: 687 nM
  TGI: > 100000 nM
[51]
  GI50: 3270 nM
  TGI: 19100 nM
[52]
  GI50: 3450 nM
  TGI: > 100000 nM
[53]
  GI50: 311 nM
  TGI: 19900 nM
[54]
  GI50: 489 nM
  TGI: 15300 nM

## O=C1/C(=C/c2ccccc2)CN(C(=O)C(Cl)Cl)C/C1=C\c1ccccc1
[1]
  GI50: 1380 nM
  TGI: 2820 nM
[2]
  GI50: 1480 nM
  TGI: 3000 nM
[3]
  GI50: 1700 nM
  TGI: 3920 nM
[4]
  GI50: 438 nM
  TGI: 1440 nM
[5]
  GI50: 1240 nM
  TGI: 2690 nM
[6]
  GI50: 1420 nM
  TGI: 2950 nM
[7]
  GI50: 152 nM
[8]
  GI50: 1190 nM
  TGI: 3010 nM
[9]
  GI50: 1210 nM
  TGI: 2470 nM
[55]
  GI50: 894 nM
  TGI: 3060 nM
[10]
  GI50: 703 nM
  TGI: 1980 nM
[11]
  GI50: 209 nM
  TGI: 527 nM
[12]
  GI50: 248 nM
  TGI: 770 nM
[13]
  GI50: 360 nM
  TGI: 2040 nM
[14]
  GI50: 1390 nM
  TGI: 2840 nM
[15]
  GI50: 1260 nM
  TGI: 3090 nM
[16]
  GI50: 1320 nM
  TGI: 6860 nM
[56]
  GI50: 295 nM
  TGI: 1060 nM
[17]
  GI50: 708 nM
  TGI: 2200 nM
[18]
  GI50: 134 nM
[19]
  GI50: 267 nM
  TGI: 845 nM
[20]
  GI50: 139 nM
  TGI: 353 nM
[21]
  GI50: 622 nM
  TGI: 2150 nM
[22]
  GI50: 996 nM
  TGI: 3060 nM
[23]
  GI50: 113 nM
  TGI: 886 nM
[24]
  GI50: 807 nM
  TGI: 2460 nM
[25]
  GI50: 312 nM
  TGI: 1030 nM
[26]
  GI50: 369 nM
[27]
  GI50: 1220 nM
  TGI: 5170 nM
[28]
  GI50: 822 nM
  TGI: 2730 nM
[29]
  GI50: 1300 nM
  TGI: 3010 nM
[30]
  GI50: 1080 nM
  TGI: 2690 nM
[31]
  GI50: 452 nM
  TGI: 4920 nM
[32]
  GI50: 330 nM
  TGI: 1060 nM
[57]
  GI50: 1120 nM
  TGI: 2440 nM
[33]
  GI50: 1060 nM
  TGI: 2850 nM
[34]
  GI50: 442 nM
  TGI: 1680 nM
[35]
  GI50: 297 nM
  TGI: 1080 nM
[36]
  GI50: 47.4 nM
  TGI: 278 nM
[37]
  GI50: 914 nM
  TGI: 2330 nM
[38]
  GI50: 1750 nM
  TGI: 5200 nM
[39]
  GI50: 597 nM
  TGI: 1860 nM
[40]
  GI50: 884 nM
  TGI: 2250 nM
[41]
  GI50: 1790 nM
  TGI: 4070 nM
[42]
  GI50: 680 nM
  TGI: 1810 nM
[43]
  GI50: 698 nM
  TGI: 1940 nM
[44]
  GI50: 1770 nM
  TGI: 3230 nM
[45]
  GI50: 430 nM
  TGI: 1260 nM
[46]
  GI50: 495 nM
  TGI: 1780 nM
[47]
  GI50: 1090 nM
  TGI: 2310 nM
[48]
  GI50: 110 nM
[49]
  GI50: 135 nM
  TGI: 440 nM
[50]
  GI50: 1190 nM
  TGI: 4110 nM
[51]
  GI50: 1790 nM
  TGI: 3220 nM
[58]
  GI50: 325 nM
  TGI: 1240 nM
[52]
  GI50: 1420 nM
  TGI: 3130 nM
[53]
  GI50: 702 nM
  TGI: 2000 nM
[54]
  GI50: 1290 nM
  TGI: 2620 nM
